The values that follow come from the supplement of paper PMC10307832.

Compound in the assay: C1=CC=C(C(=C1)C2=CC=C(C=C2)C3=CSC4=C3C(=C(C(=O)N4)C#N)O)O + NC(=O)Nc1cc(-c2cccc(F)c2)sc1C(=O)N[C@H]1CCCNC1 [AZD7762] (partner 0.2 µM)
Briefly: relative viability (nuclei count vs DMSO), 5 days (fraction); higher = more cells survive. In short, it runs like this: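 Nuclei were stained with Hoechst during a one-step fixation (final 0.05% Triton X-100, 1% formaldehyde, 1 ug/ml Hoechst) carried out 5 days after dosing, then counted on 4× images. The cells, lung cancer lines in 1536-well plates, had been dosed by pin tool the day after seeding with one drug alone or a fixed anchor-drug dose plus five library-drug doses (not always all listed) in √10 steps. Relative viability is the nuclei count in treated wells divided by that in vehicle wells, and each value is the median of duplicate plates.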

In the case of NCI-H1792, the relative viability by setting is: (first compound 0.253 µM) 0.953; (first compound 0.8 µM) 0.329; (first compound 2.53 µM) 0.551; (first compound 8 µM) 0.532.
